Assay: xn = mol fraction of the nth substance listed
Conditions: Liquid, Vibrating tube method

COC(=O)OC [dimethyl carbonate] + O=C=O
mass density [kg/m3]
Conditions | x2 = 0.2765 | x2 = 0.4101 | x2 = 0.4429 | x2 = 0.5128 | x2 = 0.5573 | x2 = 0.6179 | x2 = 0.6791 | x2 = 0.6922 | x2 = 0.7885 | x2 = 0.7974
273 K | – | 475.4 | – | 448.2 | – | 373.6 | – | 331.4 | 260.1 | –
283 K | 659.5 | – | 569.3 | – | 465.6 | – | 358.1 | – | – | 311.1
